From PMC12068008 (International Journal of Molecular Sciences, 2024) come the findings set out here.

Series [1] is described as follows: Metal-chelating assay, binding stoichiometry (molar ratio method), Zn2+. Type of series: physicochemical. As to conditions: ethanol, 30 min, compound 5 × 10^−5 M, one ion coordinates with two molecules. The protocol:
(§1) Binding stoichiometry was determined using the molar ratio method, with increasing concentrations of metal ions (from 0 to 1.5 × 10^−4 M) (Figures S1 and S2). Absorption spectra were collected 30 min after mixing. The change in absorption at the wavelength of maximum absorbance for the formed complex was plotted against the metal ion (M^2+ = Cu^2+, Zn^2+, and Fe^2+) to compound ratio (cM^2+/ccompound) and is presented in Figure 3. This graph allows the determination of the binding ratio between the newly synthesized compounds and metal ions. […] In contrast, the results for Fe^2+ indicate that only one Fe^2+ ion can bind to both compounds.
(§2) The metal-chelating ability of synthesized compounds in ethanol was assessed using UV/Vis spectrophotometer (Lambda 35, Perkin Elmer) recording spectra over a wavelength range of 230–600 nm in a 1 cm quartz cell. The mixture of compound at 5 × 10^−5 M of final concentration and metal ions at 1 × 10^−4 M of final concentration was incubated for 30 min at room temperature. The tested temperature was 25 °C. […]
(§3) The binding stoichiometry was assessed by adding increasing concentrations of metal ions (0–1.5 × 10^−4 M) to a fixed concentration of compound (5 × 10^−5 M) and incubating the mixture for 30 min at room temperature. The spectra were then measured as described above, and the ligand-to-metal chelation ratio in the complex was calculated.

Series [2] in a line: physchem. The format is physicochemical. As to conditions: n-octanol/deionized water, shake flask, 25 °C, 1 × 10^−4 M, read-out: logP, experimentally obtained. The protocol:
To measure the lipophilicity (expressed as the partition coefficient) of the synthesized compounds and their constituents, using a “shake-flask” method, a two-phase system composed of n-octanol and deionized water was used. The stock solutions of the compounds were diluted with water to the concentration of 1 × 10^−4 M, and this solution was used for further investigation. […] The concentration of the compounds was calculated from their extinction coefficient at 260 nm that was previously determined.

Series [3] is described as follows: Metal-chelating assay, binding stoichiometry (molar ratio method), Fe2+. The format is physicochemical. The settings on record: ethanol, 30 min, compound 5 × 10^−5 M. The protocol:
as §1, §2, §3

Series [4] is described as follows: DPPH radical scavenging assay. The settings on record: 30 min incubation, 25 °C. The protocol: DPPH (2,2-diphenyl-1-picrylhydrazyl) radical scavenging assay was used to assess free-radical scavenging activity of synthesized compounds. Initially, 1 × 10^−4 M working solution of DPPH was prepared, and 350 µL was added to 350 µL of the solution of each compound. The final concentrations of the compounds (Q, 2a, and 2b) in the samples were 1 × 10^−3 M, 1 × 10^−4 M, and 1 × 10^−5 M. The control included ethanol only and DPPH–ethanol solution without compounds. The mixtures were incubated at 25 °C in the dark for 30 min. After incubation, the absorbance of the samples at 517 nm was measured in duplicate by using a UV/Vis spectrophotometer (Lambda 35, Perkin Elmer, Waltham, MA, USA). The DPPH radical scavenging ability was calculated using the following equation:(1) Antioxidative activity(%)=Acontrol−Asample/Acontrol×100% where Asample and Acontrol represent the absorbance at 517 nm of the sample and control, respectively. All samples were analysed in duplicate.

Series [5] deals with eqBuChE (Equus caballus, UniProt P81908). Briefly: BuChE inhibition (Ellman's procedure). The settings on record: 37 °C; for IC50: read-out: IC50 BChE; for inhibition at 100 µM: at 1 × 10^−4 M, read-out: Percentage Inhibition BuChE. The format is biochemical. The protocol:
The abilities of compounds to inhibit AChE and BuChE activity were determined following Ellman’s procedure, with AChI and BuChI as the enzyme substrate, respectively, and DTNB as a chromogenic reagent. AChE’s and BuChE’s working solutions were prepared at 20 mM TRIS and deionized water, respectively. AChI and BuChI solutions were prepared in deionized water. A 0.01 M DTNB solution was prepared with 0.1 M phosphate buffer (pH 7) containing 0.15% (w/v) sodium bicarbonate. Stock solutions (10 mM) of investigated compounds were prepared daily by dissolving solid compounds in DMSO. The reaction mixture containing phosphate buffer, DTNB, enzyme, and compound was preincubated 30 min at 37 °C. After the preincubation time, the enzyme reaction was initiated by adding appropriate substrate and left to incubate for 6 min. After incubation, 0.1 M SDS was added to stop the reaction. Absorbance measurements were performed using a UV/Vis spectrophotometer (Lambda 35, Perkin Elmer), measuring absorbance at 412 nm. A blank assay, containing all components except the enzyme, was used to account for non-enzyme reactions. The control solution contained all components except the inhibitor. All experiments were conducted in triplicate, and the results are expressed as the mean percentage enzyme activity compared to the control value. IC50 values were determined graphically using Origin 9 Microsoft Windows.

Chain of eqBuChE (P81908 whole entry): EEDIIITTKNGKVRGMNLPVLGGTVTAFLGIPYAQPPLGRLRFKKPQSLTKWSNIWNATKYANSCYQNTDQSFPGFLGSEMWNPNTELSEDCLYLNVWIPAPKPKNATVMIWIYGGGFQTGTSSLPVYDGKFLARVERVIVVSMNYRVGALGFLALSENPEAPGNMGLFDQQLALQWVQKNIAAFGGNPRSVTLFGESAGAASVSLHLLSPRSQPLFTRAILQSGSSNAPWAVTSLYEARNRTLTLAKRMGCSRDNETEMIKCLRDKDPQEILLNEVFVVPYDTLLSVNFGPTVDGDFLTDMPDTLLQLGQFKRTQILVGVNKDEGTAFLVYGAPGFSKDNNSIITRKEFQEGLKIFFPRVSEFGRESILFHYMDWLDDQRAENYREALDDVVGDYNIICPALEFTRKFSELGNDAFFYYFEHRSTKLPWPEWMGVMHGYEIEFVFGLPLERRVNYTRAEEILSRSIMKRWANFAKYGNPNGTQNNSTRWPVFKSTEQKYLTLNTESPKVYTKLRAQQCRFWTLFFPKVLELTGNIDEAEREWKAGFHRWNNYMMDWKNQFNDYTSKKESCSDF

As usually defined, the logP is the decadic logarithm of the partition coefficient of the neutral form, usually between octanol and water. Broadly, the IC50 is the concentration that gives 50% inhibition. The term inhibition denotes the change of the read-out against control, counted positive when it falls. As to `O=c1c(O)c(-c2ccc(O)c(O)c2)oc2c(CN3CCc4ccccc4C3)c(O)cc(O)c12` [Compound 2a], in series [1], the “binding stoichiometry Zn^2+” value came out at 2. Moreover, the logP at 30 min in series [2] was 3.07. In series [3], the “binding stoichiometry Fe^2+ (ions bound)” value was “one”. The IC50 turned out to be 1.59 µM in series [4] and 16.9 µM in series [5]. The inhibition at 100 µM in series [5] worked out at 70%.

Regarding `COc1cc2c(cc1OC)CN(Cc1c(O)cc(O)c3c(=O)c(O)c(-c4ccc(O)c(O)c4)oc13)CC2` [Compound 2b], the “binding stoichiometry Zn^2+” value in series [1] is recorded as 2. For the same compound, the logP at 30 min in series [2] amounted to 2.47. Further, the “binding stoichiometry Fe^2+ (ions bound)” value in series [3] is listed as “one”. In series [4], half-maximal inhibition (IC50) was put at 10.2 µM. Besides, in series [5], the half-inhibitory concentration (IC50) turned out to be 41.1 µM and the inhibition at 100 µM was found to be 67.6%.
